# Measurements from the supplement of paper PMC10307832.
# How the values were obtained:
# Assay in all cases: relative viability (nuclei count vs DMSO), 5 days (fraction); higher = more cells survive
# PC-14 = system: PC-14
# Method in brief: (§1)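 Medians of duplicate plates are given as relative viability. That measure is the nuclei count in treated wells divided by the count in vehicle wells. Counts were taken on 4× images of lung cancer cell lines in 1536-well plates, 5 days after pin-tool dosing the day after seeding with one drug alone or a fixed anchor-drug dose plus five library-drug doses (not always all listed) in √10 steps.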
# LCLC-103H = system: LCLC-103H
# Method in brief: as §1
# NCI-H322M = system: NCI-H322M
# Method in brief: as §1
# NCI-H2126 = system: NCI-H2126
# Method in brief: as §1
# LXF-289 = system: LXF-289
# Method in brief: as §1
# NCI-H1666 = system: NCI-H1666
# Method in brief: as §1
# LU99A = system: LU99A
# Method in brief: as §1
# EKVX = system: EKVX
# Method in brief: as §1
# NCI-H23 = system: NCI-H23
# Method in brief: as §1
# LK-2 = system: LK-2
# Method in brief: as §1
# NCI-H2342 = system: NCI-H2342
# Method in brief: as §1
# SW 900 = system: SW 900
# Method in brief: as §1
# EPLC-272H = system: EPLC-272H
# Method in brief: as §1
# SK-LU-1 = system: SK-LU-1
# Method in brief: as §1
# NCI-H2405 = system: NCI-H2405
# Method in brief: as §1
# NCI-H1975 = system: NCI-H1975
# Method in brief: as §1
# EMC-BAC-2 = system: EMC-BAC-2
# Method in brief: as §1
# SW 1573 = system: SW 1573
# Method in brief: as §1
# ChaGo-K-1 = system: ChaGo-K-1
# Method in brief: as §1
# RERF-LC-KJ = system: RERF-LC-KJ
# Method in brief: as §1
# HCC-827 = system: HCC-827
# Method in brief: as §1
# HCC-78 = system: HCC-78
# Method in brief: as §1
structure (smiles),measurement,setting,value
O=c1cc(N2CCOCC2)oc2c(-c3cccc4c3sc3ccccc34)cccc12 + CC(=O)c1c(C)c2cnc(Nc3ccc(N4CCNCC4)cn3)nc2n(C2CCCC2)c1=O [Palbociclib] (partner 0.5 µM),relative viability,PC-14; first compound 0.01 µM,0.436
same,relative viability,PC-14; first compound 0.03162 µM,0.479
same,relative viability,PC-14; first compound 0.1 µM,0.541
same,relative viability,PC-14; first compound 0.3162 µM,0.581
same,relative viability,PC-14; first compound 1 µM,0.596
same,relative viability,LCLC-103H; first compound 0.01 µM,0.446
same,relative viability,LCLC-103H; first compound 0.03162 µM,0.439
same,relative viability,LCLC-103H; first compound 0.1 µM,0.513
same,relative viability,LCLC-103H; first compound 0.3162 µM,0.514
same,relative viability,LCLC-103H; first compound 1 µM,0.43
same,relative viability,NCI-H322M; first compound 0.01 µM,0.484
same,relative viability,NCI-H322M; first compound 0.03162 µM,0.472
same,relative viability,NCI-H322M; first compound 0.3162 µM,0.462
same,relative viability,NCI-H322M; first compound 1 µM,0.45
same,relative viability,NCI-H2126; first compound 0.01 µM,0.349
same,relative viability,NCI-H2126; first compound 0.03162 µM,0.339
same,relative viability,NCI-H2126; first compound 0.1 µM,0.318
same,relative viability,NCI-H2126; first compound 0.3162 µM,0.331
same,relative viability,NCI-H2126; first compound 1 µM,0.345
same,relative viability,LXF-289; first compound 0.01 µM,0.631
same,relative viability,LXF-289; first compound 0.03162 µM,0.59
same,relative viability,LXF-289; first compound 0.1 µM,0.593
same,relative viability,LXF-289; first compound 0.3162 µM,0.583
same,relative viability,LXF-289; first compound 1 µM,0.595
same,relative viability,NCI-H1666; first compound 0.01 µM,0.663
same,relative viability,NCI-H1666; first compound 0.03162 µM,0.593
same,relative viability,NCI-H1666; first compound 0.1 µM,0.709
same,relative viability,NCI-H1666; first compound 0.3162 µM,0.651
same,relative viability,NCI-H1666; first compound 1 µM,0.643
same,relative viability,LU99A; first compound 0.01 µM,0.393
same,relative viability,LU99A; first compound 0.03162 µM,0.414
same,relative viability,LU99A; first compound 0.1 µM,0.414
same,relative viability,LU99A; first compound 0.3162 µM,0.379
same,relative viability,LU99A; first compound 1 µM,0.488
same,relative viability,EKVX; first compound 0.01 µM,0.376
same,relative viability,EKVX; first compound 0.03162 µM,0.363
same,relative viability,EKVX; first compound 0.1 µM,0.484
same,relative viability,EKVX; first compound 0.3162 µM,0.43
same,relative viability,EKVX; first compound 1 µM,0.332
same,relative viability,NCI-H23; first compound 0.01 µM,0.464
same,relative viability,NCI-H23; first compound 0.03162 µM,0.524
same,relative viability,NCI-H23; first compound 0.3162 µM,0.485
same,relative viability,NCI-H23; first compound 1 µM,0.473
same,relative viability,LK-2; first compound 0.01 µM,0.83
same,relative viability,LK-2; first compound 0.03162 µM,0.768
same,relative viability,LK-2; first compound 0.1 µM,0.587
same,relative viability,LK-2; first compound 0.3162 µM,0.638
same,relative viability,LK-2; first compound 1 µM,0.77
same,relative viability,NCI-H2342; first compound 0.01 µM,0.539
same,relative viability,NCI-H2342; first compound 0.03162 µM,0.502
same,relative viability,NCI-H2342; first compound 0.1 µM,0.537
same,relative viability,NCI-H2342; first compound 0.3162 µM,0.529
same,relative viability,NCI-H2342; first compound 1 µM,0.508
same,relative viability,SW 900; first compound 0.03162 µM,0.473
same,relative viability,SW 900; first compound 0.1 µM,0.567
same,relative viability,SW 900; first compound 0.3162 µM,0.507
same,relative viability,SW 900; first compound 1 µM,0.517
same,relative viability,EPLC-272H; first compound 0.01 µM,0.302
same,relative viability,EPLC-272H; first compound 0.03162 µM,0.31
same,relative viability,EPLC-272H; first compound 0.1 µM,0.274
same,relative viability,EPLC-272H; first compound 0.3162 µM,0.325
same,relative viability,EPLC-272H; first compound 1 µM,0.325
same,relative viability,SK-LU-1; first compound 0.01 µM,0.473
same,relative viability,SK-LU-1; first compound 0.03162 µM,0.425
same,relative viability,SK-LU-1; first compound 0.1 µM,0.368
same,relative viability,SK-LU-1; first compound 0.3162 µM,0.391
same,relative viability,SK-LU-1; first compound 1 µM,0.347
same,relative viability,NCI-H2405; first compound 0.01 µM,0.566
same,relative viability,NCI-H2405; first compound 0.03162 µM,0.542
same,relative viability,NCI-H2405; first compound 0.1 µM,0.531
same,relative viability,NCI-H2405; first compound 0.3162 µM,0.513
same,relative viability,NCI-H2405; first compound 1 µM,0.527
same,relative viability,NCI-H1975; first compound 0.01 µM,0.61
same,relative viability,NCI-H1975; first compound 0.03162 µM,0.609
same,relative viability,NCI-H1975; first compound 0.1 µM,0.626
same,relative viability,NCI-H1975; first compound 0.3162 µM,0.529
same,relative viability,NCI-H1975; first compound 1 µM,0.591
same,relative viability,EMC-BAC-2; first compound 0.01 µM,0.525
same,relative viability,EMC-BAC-2; first compound 0.03162 µM,0.541
same,relative viability,EMC-BAC-2; first compound 0.1 µM,0.55
same,relative viability,EMC-BAC-2; first compound 0.3162 µM,0.51
same,relative viability,EMC-BAC-2; first compound 1 µM,0.497
same,relative viability,SW 1573; first compound 0.01 µM,0.349
same,relative viability,SW 1573; first compound 0.03162 µM,0.436
same,relative viability,SW 1573; first compound 0.1 µM,0.408
same,relative viability,SW 1573; first compound 0.3162 µM,0.349
same,relative viability,SW 1573; first compound 1 µM,0.394
same,relative viability,ChaGo-K-1; first compound 0.01 µM,0.884
same,relative viability,ChaGo-K-1; first compound 0.03162 µM,0.91
same,relative viability,ChaGo-K-1; first compound 0.1 µM,0.964
same,relative viability,ChaGo-K-1; first compound 0.3162 µM,0.947
same,relative viability,ChaGo-K-1; first compound 1 µM,0.954
same,relative viability,RERF-LC-KJ; first compound 0.01 µM,1.06
same,relative viability,RERF-LC-KJ; first compound 0.03162 µM,1.1
same,relative viability,RERF-LC-KJ; first compound 0.1 µM,1.04
same,relative viability,RERF-LC-KJ; first compound 0.3162 µM,1.09
same,relative viability,RERF-LC-KJ; first compound 1 µM,1.08
same,relative viability,HCC-827; first compound 0.01 µM,0.52
same,relative viability,HCC-827; first compound 0.03162 µM,0.485
same,relative viability,HCC-827; first compound 0.1 µM,0.457
same,relative viability,HCC-827; first compound 0.3162 µM,0.53
same,relative viability,HCC-827; first compound 1 µM,0.47
same,relative viability,HCC-78; first compound 0.01 µM,0.493
same,relative viability,HCC-78; first compound 0.03162 µM,0.482
same,relative viability,HCC-78; first compound 0.1 µM,0.437
same,relative viability,HCC-78; first compound 0.3162 µM,0.5
same,relative viability,HCC-78; first compound 1 µM,0.446
